Assay results as given in publication PMC11637823, “Evaluating the Antimicrobial Efficacy of a Designed Synthetic Peptide against Pathogenic Bacteria” (Journal of Microbiology and Biotechnology, 2024).
Converted amounts (≈) assume the structure as drawn. Ends that are not written are not given here.

Columns and labels:
[1] = tested on: A. baumannii biofilm (IC 003321216); assay: Mature biofilm eradication, MTT viability; conditions: ciprofloxacin alone
[2] = tested on: Gram-negative bacteria; assay: MIC and MBC assays, span over strains; type: cell-based
Description: (§1) Clinical and Laboratory Standards Institute (CLSI) guidelines performed the peptide MIC assays. Bacterial colonies were isolated on the Muller Hinton Agar (MHA) and plated at a final concentration of 1.5 × 10^5 CFU/ml.
(§2) For the results, bacterial growth was determined by visual inspection and confirmed by absorbance measurement at 595 nm after 24 h of incubation using a Multiskan GO microplate reader (Thermo Fisher Scientific, USA). […] The rest of the assay was conducted as previously described.
(§3) The MBC was determined based on the MIC results. Three replicates of 10 μl were extracted from the microplate wells, placed on MHA, and then kept in an incubator at 37°C for 24 h. […] All experiments were performed in triplicate.

[3] = tested on: Staphylococcus saprophyticus ATCC 29970; assay: microbe, parasite or virus in culture
Description: as §1, §2, §3

[4] = tested on: Pseudomonas aeruginosa ATCC 27853; assay: microbe, parasite or virus in culture
Description: as §1, §2, §3

[5] = tested on: Staphylococcus aureus (MRSA) ATCC 33591; assay: microbe, parasite or virus in culture
Description: as §1, §2, §3

[6] = tested on: Staphylococcus aureus (MRSA) ATCC 43300; assay: microbe, parasite or virus in culture
Description: as §1, §2, §3

[7] = tested on: Escherichia coli KPC+ 001812446; assay: microbe, parasite or virus in culture
Description: as §1, §2, §3

[8] = tested on: E. coli; design: method as in PMID 16352849; conditions: cited from earlier work
[9] = tested on: ESKAPE pathogens; conditions: at one-third of the MIC; cited from earlier work
Description: A. baumannii, known for colonising medical equipment surfaces like urinary catheters to form a biofilm, contributes to recurrent and persistent patient infections. WLBU-2, a synthetic cationic peptide, and LL-37, a naturally occurring antimicrobial peptide, underwent testing for efficacy against a range ...

[10] = tested on: RAW 264.7 murine macrophages; conditions: 64 µM
Description: Cellular viability. RAW 264.7 murine macrophages' cellular viability was evaluated in the presence of the RK8 peptide, according to the method proposed by Mosmann [18], using the enzymatic reduction of the reagent 3-(4,5-dimethylthiazol-2-yl bromide) -2,5-diphenyltetrazolium (MTT).
After detaching from the culture bottle, their density was determined, and they were seeded in a 96-well microplate at a density of 6 × 10^3 cells per well. After being placed in microplates, the cells were incubated for 24 h. The culture medium was replaced with a DMEM culture medium lacking SFB supplementation. Instead, it contained a serial dilution of RK8 ranging from 1 to 64 μM. After 24 h, the medium containing RK8 was removed and replaced with 100 μl of DMEM medium containing MTT 0.5 mg/ml. After four hours of incubation, the medium was removed again, and the reduced formazan crystals were resuspended with the addition of 100 μl of DMSO. Then, the absorbance of the wells was determined at 630 nm in a Varioskan microplate reader (Thermo Fisher Scientific). Three independent experiments were performed in triplicate. Cell viability was calculated from the following formula:
Cell viability (%) = (AbsSample÷AbsNegative control) × 100

[11] = tested on: human erythrocytes; type: cell-based; conditions: 100 µM
Description: Hemolytic activity. As hemolysis is an effect widely observed among antimicrobial peptides, we investigated the RK8 peptide hemolytic activity based on the protocol proposed by Uggerhøj et al. using erythrocytes. The blood sample (1 ml) was washed three times with 3 ml of saline solution through centrifugation cycles of 8 min at 1,380 ×g to secure a concentrated solution of erythrocytes. […] The samples were incubated for 60 min at 37°C and sequentially centrifuged for 10 min at 2,455 ×g. Subsequently, 100 μl of the supernatant was transferred to 96-well microplate wells in triplicate. The free haemoglobin content was determined at 414 nm on a Multiskan GO microplate reader (Thermo Fisher Scientific).

[12] = in vitro
Description: The mixture was maintained at 30°C. Aliquots of 150 μl were collected after 0, 15, 30, 45, 60, and 120 min, mixed with ten μl of Trifluoroacetic Acid (TFA) and centrifuged at 14 000 rpm at 4°C for 10 min [19]. High-Performance Liquid Chromatography (HPLC) monitored the stability of the peptide using the C-18 reversed-phase hydrophobic column (μ Bondapak C18, 3.9 × 300 mm, Waters, USA) at 25°C. The peptide's remaining percentage during degradation kinetics was calculated by integrating the peak area corresponding to the RK8 peptide, injecting 40 μl of the incubation product in triplicate. The assay was conducted in an Ultimate 3000 chromatograph (Thermo Fisher Scientific). A separation program of 60 min at 1 ml/min was implemented, with monitoring of the 220 and 280 nm wavelengths. Thermo Scientific's ChromeleonTM Chromatography Data System (CDS) 7 software determined the area under the curve.

[13] = tested on: Acinetobacter baumannii IC 003321216; conditions: IC 003321216, 24 h
Description: as §1, §2, §3

[14] = tested on: Klebsiella pneumoniae ATCC 700603; conditions: ATCC 700603, 24 h
Description: as §1, §2, §3

[15] = tested on: Acinetobacter baumannii ATCC 19906; conditions: ATCC 19906, 24 h
Description: as §1, §2, §3

[16] = tested on: Escherichia coli ATCC 35218; conditions: ATCC 35218, 24 h
Description: as §1, §2, §3

[17] = tested on: E. coli, P. aeruginosa, and A. baumanii; conditions: 24 h
[18] = Staphylococcus saprophyticus, ATCC29970, 24 h

**Q.** For `O=C(O)c1cn(C2CC2)c2cc(N3CCNCC3)c(F)cc2c1=O` [Ciprofloxacin, ciprofloxacin], which impact on biofilm [1] is on record?
**A.** Its impact on biofilm is “no impact”.

**Q.** For `CN[C@H](CC(C)C)C(=O)N[C@H]1C(=O)N[C@@H](CC(N)=O)C(=O)N[C@H]2C(=O)N[C@H]3C(=O)N[C@H](C(=O)N[C@H](C(=O)O)c4cc(O)cc(O)c4-c4cc3ccc4O)[C@H](O)c3ccc(c(Cl)c3)Oc3cc2cc(c3O[C@@H]2O[C@H](CO)[C@@H](O)[C@H](O)[C@H]2O[C@H]2C[C@](C)(N)[C@H](O)[C@H](C)O2)Oc2ccc(cc2Cl)[C@H]1O` [Vancomycin, vancomycin, reference compound], which MBC ([2]; read-out: MBC values) is on record?
**A.** The MBC was 0.5 to 4 µM (≈ 0.725 to 5.8 µg/mL).

**Q.** And the MIC ([2]; span over Gram-negative strains, 1.5 × 10^5 CFU per ml)?
**A.** The MIC was 0.5 to 8 µM (≈ 0.725 to 11.6 µg/mL).

**Q.** What about the MBC ([3]; 10 μl from MIC wells on MHA, 37°C, 24 h, triplicate) of the same compound?
**A.** The MBC was “one”.

**Q.** What about the MBC [3, 18] of the same compound?
**A.** The MBC was 1 µM (≈ 1.45 µg/mL).

**Q.** And the MIC [3, 18]?
**A.** Its MIC is 0.5 µM (≈ 0.725 µg/mL).

**Q.** What about the MBC ([4]; Pseudomonas aeruginosa, ATCC27853, 24 h) of the same compound?
**A.** The MBC was 1 µM (≈ 1.45 µg/mL).

**Q.** And the MBC ([5]; Staphylococcus aureus, 24 h)?
**A.** The MBC was 1 µM (≈ 1.45 µg/mL).

**Q.** And the MBC ([6]; Staphylococcus aureus, ATCC43300|MRSA, 24 h, 10 μl from MIC wells on MHA, 37°C, triplicate)?
**A.** The MBC was 1 µM (≈ 1.45 µg/mL).

**Q.** And the MBC ([7]; Escherichia coli, 24 h)?
**A.** Its MBC is 0.5 µM (≈ 0.725 µg/mL).

**Q.** What about the MIC ([7]; Escherichia coli, 24 h) of the same compound?
**A.** The MIC was 0.5 µM (≈ 0.725 µg/mL).

**Q.** Which MIC [8] does the source give for Indolicidin here?
**A.** The MIC was 10 µM.

**Q.** Which “inhibition of biofilm formation” value [9] does the source give for LL-37 here?
**A.** Its value is 90%.

**Q.** Which results are given for RKWRKWWK [RK8]?
**A.** cell viability [10]: 90.1%; hemolysis [11]: approximately 4.6%; decrease in the overall area ([12]; 25% FBS in ultrapure water, 30°C, 120 min, RP-HPLC C18 peak area, triplicate): 40%; area under the RK8 peak (intact peptide) ([12]; 25% FBS in ultrapure water, 30°C, first 45 min, RP-HPLC C18 peak area, triplicate): unaffected; metabolised at 1 h, 0.385 mg/ml ([12]; 25% fetal bovine serum (FBS)): 12.2%; remaining at 2 h, 0.385 mg/ml ([12]; 25% fetal bovine serum (FBS)): ~60%; MBC ([3]; ATCC 29970, 24 h): 64 µM; MIC ([3]; ATCC 29970, 24 h): >64 µM; MBC ([4]; ATCC 27853, 24 h): 64 µM; MBC ([5]; ATCC 33591, 24 h): 8 µM; MIC ([5]; ATCC 33591, 24 h): 8 µM; MBC ([6]; ATCC 43300, 24 h): 8 µM; MIC ([6]; ATCC 43300, 24 h): 16 µM; MBC ([7]; KPC+ 001812446, 24 h): 8 µM; MIC ([7]; KPC+ 001812446, 24 h): 16 µM; MBC [13]: 4 µM; MIC [13]: 64 µM; MBC [14]: 64 µM; MIC [14]: >64 µM; MBC [15]: 4 µM; MIC [15]: >64 µM; MBC [16]: 2 µM; MIC [16]: >64 µM; concentrations with bactericidal effect (consistent MIC and MBC values) [17]: 0.5 to 4 µM
